Reference: ChEMBL document CHEMBL4190315, “Novel cinnamamide-dibenzylamine hybrids: Potent neurogenic agents with antioxidant, cholinergic, and neuroprotective properties as innovative drugs for Alzheimer's disease” (Eur J Med Chem, 2017)
pIC50: −log10 of the molar value. Activity calls are given as the source filed them. The calls are words filed in the database; no cut-off is given here.

Experiments:
[1] = Inhibition of Cu2+-mediated aggregation of amyloid beta (1 to 42) (unknown origin) at 50 uM after 24 hrs by thioflavin T fluorescence assay relative to control
[2] = target: Cholinesterase (Equus caballus) (UniProt P81908); test: Inhibition of equine serum BChE at 0.001 to 100 uM using S-butyrylthiocholine iodide as substrate preincubated for 5 mins followed by substrate addition measured up to 180 secs by spectrophotometric analysis relative to control
[3] = target: Amyloid-beta precursor protein (Homo sapiens) (UniProt P05067); test: Inhibition of HFIP pretreated amyloid beta (1 to 42) (unknown origin) self-aggregation at 20 uM after 48 hrs by thioflavin T fluorescence assay relative to control
[4] = target: Acetylcholinesterase (Electrophorus electricus) (UniProt O42275); test: Inhibition of electric eel AChE at 0.001 to 100 uM using acetylthiocholine iodide as substrate preincubated for 5 mins followed by substrate addition measured up to 180 secs by spectrophotometric analysis relative to control
[5] = Antioxidant activity assessed as inhibition of AAPH-induced peroxyl radical generation measured as trolox equivalent preincubated for 15 mins followed by AAPH addition measured every min for 120 mins by ORAC-FL assay; assay type: functional
Cholinesterase [6] = target: Cholinesterase (Homo sapiens, UniProt P06276); test: Inhibition of human serum BChE using S-butyrylthiocholine iodide as substrate preincubated for 5 mins followed by substrate addition measured up to 180 secs by spectrophotometric analysis
[7] = Selectivity index, ratio of IC50 for equine serum BChE to IC50 for electric eel AChE
Cholinesterase [8] = target: Cholinesterase (Equus caballus, UniProt P81908); test: Inhibition of equine serum BChE using S-butyrylthiocholine iodide as substrate preincubated for 5 mins followed by substrate addition measured up to 180 secs by spectrophotometric analysis
Acetylcholinesterase [9] = target: Acetylcholinesterase (Electrophorus electricus, UniProt O42275); test: Inhibition of electric eel AChE using acetylthiocholine iodide as substrate preincubated for 5 mins followed by substrate addition measured up to 180 secs by spectrophotometric analysis
Acetylcholinesterase [10] = target: T1, Acetylcholinesterase (Homo sapiens, UniProt P22303); test: Inhibition of human erythrocytic AChE using acetylthiocholine iodide as substrate preincubated for 5 mins followed by substrate addition measured up to 180 secs by spectrophotometric analysis
[11] = Effective permeability of compound at 50 ug/mL after 16 hrs by PAMPA-BBB assay
[12] = Metal chelating activity assessed as mole fraction of compound required to show 1:2 stoichiometry for Cu2+-compound complex at 25 uM after 30 mins by Job's plot analysis
Mus musculus [13] = test: Reversal of scopolamine-induced memory impairment in Kunming mouse assessed as increase in step-down latency time at 5 to 15 mg/kg, po administered 60 mins prior to training trial followed by scopolamine challenge at 30 mins post dose measured 24 hrs after training trial by passive avoidance test; assay type: functional, organism-based
PC-12 [14] = test: Cytotoxicity against rat PC12 cells at 1.25 to 50 uM after 24 hrs by MTT assay; assay type: cell-based; conditions: pc-12, 24 h
Mus musculus [15] = test: Reversal of scopolamine-induced memory impairment in Kunming mouse assessed as increase in step-down latency time at 5 mg/kg, po administered 60 mins prior to training trial followed by scopolamine challenge at 30 mins post dose measured 24 hrs after training trial by passive avoidance test; assay type: functional, organism-based
[16] = Copper-chelating activity assessed as minimum absorption at 25 uM after 30 mins by UV-vis spectrophotometric method (reference value: 260 nanometer)
[17] = Metal chelating activity assessed as Fe3+-compound complex formation at 25 uM after 30 mins by UV-vis spectrophotometric method
[18] = Metal chelating activity assessed as Fe2+-compound complex formation at 25 uM after 30 mins by UV-vis spectrophotometric method
[19] = Copper-chelating activity assessed as red shift by measuring maximum absorption at 25 uM after 30 mins by UV-vis spectrophotometric method (reference value: 230 nanometer)
Acetylcholinesterase [20] = target: T1, Acetylcholinesterase; test: Mixed-type inhibition of AChE (unknown origin) at 2.25 to 9 uM using acetylthiocholine iodide as substrate preincubated for 5 mins followed by substrate addition measured up to 180 secs by Lineweaver-Burk plot analysis
[21] = Inhibition of Cu2+-mediated aggregation of amyloid beta (1 to 42) (unknown origin) assessed as reduction in fibril formation at 50 uM after 24 hrs by transmission electron microscopic analysis
[22] = Metal chelating activity assessed as Zn2+-compound complex formation at 25 uM after 30 mins by UV-vis spectrophotometric method
PC-12 [23] = test: Neuroprotective activity against H2O2-induced oxidative damage in rat PC12 cells assessed as increase in cell viability at 1.25 to 25 uM preincubated for 2 hrs followed by H2O2 challenge measured after 24 hrs by MTT assay; assay type: functional, cell-based
PC-12 [24] = test: Neuroprotective activity against H2O2-induced oxidative damage in rat PC12 cells assessed as increase in cell viability at 25 uM preincubated for 2 hrs followed by H2O2 challenge measured after 24 hrs by MTT assay; assay type: functional, cell-based

Acetylcholinesterase (Electrophorus electricus), sequence (O42275 24-633 limits assumed): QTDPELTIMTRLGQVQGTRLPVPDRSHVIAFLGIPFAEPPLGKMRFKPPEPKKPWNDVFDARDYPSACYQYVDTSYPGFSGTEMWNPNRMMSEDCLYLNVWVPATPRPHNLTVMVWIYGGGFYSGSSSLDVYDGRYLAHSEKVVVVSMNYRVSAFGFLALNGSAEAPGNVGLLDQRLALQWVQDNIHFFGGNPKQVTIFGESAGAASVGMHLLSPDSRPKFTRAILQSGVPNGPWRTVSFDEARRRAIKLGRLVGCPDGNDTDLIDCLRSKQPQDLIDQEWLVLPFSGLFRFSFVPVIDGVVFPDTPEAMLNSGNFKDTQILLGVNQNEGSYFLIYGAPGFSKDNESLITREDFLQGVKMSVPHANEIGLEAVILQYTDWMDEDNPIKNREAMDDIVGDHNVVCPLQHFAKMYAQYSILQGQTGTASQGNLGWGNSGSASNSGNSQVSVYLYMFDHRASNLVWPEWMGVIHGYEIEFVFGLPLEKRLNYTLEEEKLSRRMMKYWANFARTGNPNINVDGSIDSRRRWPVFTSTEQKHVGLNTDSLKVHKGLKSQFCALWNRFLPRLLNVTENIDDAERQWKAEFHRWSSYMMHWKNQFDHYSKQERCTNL
Acetylcholinesterase (Electrophorus electricus, UniProt O42275), sequence (O42275 whole entry): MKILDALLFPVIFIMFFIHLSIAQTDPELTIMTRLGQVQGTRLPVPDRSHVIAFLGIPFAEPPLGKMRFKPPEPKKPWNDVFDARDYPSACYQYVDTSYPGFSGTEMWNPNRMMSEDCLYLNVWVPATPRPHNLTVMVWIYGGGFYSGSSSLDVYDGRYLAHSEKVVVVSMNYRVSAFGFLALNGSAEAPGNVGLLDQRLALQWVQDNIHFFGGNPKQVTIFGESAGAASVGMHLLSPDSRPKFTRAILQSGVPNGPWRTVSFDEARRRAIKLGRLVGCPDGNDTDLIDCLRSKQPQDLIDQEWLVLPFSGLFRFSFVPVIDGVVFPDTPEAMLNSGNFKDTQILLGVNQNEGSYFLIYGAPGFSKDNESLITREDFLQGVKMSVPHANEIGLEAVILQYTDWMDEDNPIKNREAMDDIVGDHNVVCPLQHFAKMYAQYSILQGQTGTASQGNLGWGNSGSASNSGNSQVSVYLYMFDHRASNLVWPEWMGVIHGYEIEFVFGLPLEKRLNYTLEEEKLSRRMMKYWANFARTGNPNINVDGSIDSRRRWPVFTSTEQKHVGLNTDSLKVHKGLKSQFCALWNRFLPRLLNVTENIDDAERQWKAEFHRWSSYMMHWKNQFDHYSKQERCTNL
Cholinesterase (Homo sapiens, UniProt P06276), sequence (P06276 whole entry): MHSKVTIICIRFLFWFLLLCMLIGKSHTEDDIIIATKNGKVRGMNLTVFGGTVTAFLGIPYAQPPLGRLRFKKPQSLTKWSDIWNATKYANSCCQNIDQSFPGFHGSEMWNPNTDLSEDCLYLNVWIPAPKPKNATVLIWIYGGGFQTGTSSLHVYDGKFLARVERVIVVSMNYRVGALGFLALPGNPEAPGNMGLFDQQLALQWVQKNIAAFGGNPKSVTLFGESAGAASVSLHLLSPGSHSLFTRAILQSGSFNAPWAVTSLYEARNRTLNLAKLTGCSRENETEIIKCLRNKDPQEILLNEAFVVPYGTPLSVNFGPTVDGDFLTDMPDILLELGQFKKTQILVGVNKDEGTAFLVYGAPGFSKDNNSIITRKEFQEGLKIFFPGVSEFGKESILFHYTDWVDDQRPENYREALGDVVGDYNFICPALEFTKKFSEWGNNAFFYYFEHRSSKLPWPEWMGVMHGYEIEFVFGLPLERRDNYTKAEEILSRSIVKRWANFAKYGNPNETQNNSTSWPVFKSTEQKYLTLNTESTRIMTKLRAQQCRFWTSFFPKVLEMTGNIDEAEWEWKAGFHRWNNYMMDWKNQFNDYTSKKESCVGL
T1 sequence (P22303 whole entry): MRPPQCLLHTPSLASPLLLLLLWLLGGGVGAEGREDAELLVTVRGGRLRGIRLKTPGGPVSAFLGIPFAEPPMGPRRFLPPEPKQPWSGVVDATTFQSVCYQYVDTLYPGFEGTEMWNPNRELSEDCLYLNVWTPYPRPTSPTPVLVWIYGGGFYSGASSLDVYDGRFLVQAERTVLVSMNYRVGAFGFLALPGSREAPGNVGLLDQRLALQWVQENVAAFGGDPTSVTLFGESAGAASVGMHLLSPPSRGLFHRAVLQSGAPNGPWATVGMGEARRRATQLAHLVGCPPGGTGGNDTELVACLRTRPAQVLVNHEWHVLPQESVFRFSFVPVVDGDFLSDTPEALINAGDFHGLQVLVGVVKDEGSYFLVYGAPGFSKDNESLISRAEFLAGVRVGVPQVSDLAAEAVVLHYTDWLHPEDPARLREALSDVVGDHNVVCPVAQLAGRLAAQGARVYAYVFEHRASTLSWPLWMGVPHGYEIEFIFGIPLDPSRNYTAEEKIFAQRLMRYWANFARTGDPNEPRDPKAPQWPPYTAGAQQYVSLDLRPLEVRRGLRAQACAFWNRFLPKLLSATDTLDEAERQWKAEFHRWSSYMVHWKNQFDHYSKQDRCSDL
Cholinesterase (Equus caballus, UniProt P81908), sequence (P81908 whole entry): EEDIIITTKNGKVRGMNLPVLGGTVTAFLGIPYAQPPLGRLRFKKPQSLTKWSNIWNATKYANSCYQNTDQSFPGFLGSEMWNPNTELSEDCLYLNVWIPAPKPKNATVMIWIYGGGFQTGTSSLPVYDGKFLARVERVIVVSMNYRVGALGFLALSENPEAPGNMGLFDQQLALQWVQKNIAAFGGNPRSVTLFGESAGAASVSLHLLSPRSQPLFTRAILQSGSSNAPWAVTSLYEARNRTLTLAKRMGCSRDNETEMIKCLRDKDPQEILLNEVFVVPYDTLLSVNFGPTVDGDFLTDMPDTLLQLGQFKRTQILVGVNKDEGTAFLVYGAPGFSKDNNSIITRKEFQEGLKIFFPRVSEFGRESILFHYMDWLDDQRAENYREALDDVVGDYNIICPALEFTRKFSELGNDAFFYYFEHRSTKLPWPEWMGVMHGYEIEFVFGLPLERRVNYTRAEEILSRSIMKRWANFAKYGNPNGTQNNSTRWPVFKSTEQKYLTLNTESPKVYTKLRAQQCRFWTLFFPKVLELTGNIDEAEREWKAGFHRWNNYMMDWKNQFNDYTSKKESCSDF
Amyloid-beta precursor protein (Homo sapiens), sequence (P05067 whole entry): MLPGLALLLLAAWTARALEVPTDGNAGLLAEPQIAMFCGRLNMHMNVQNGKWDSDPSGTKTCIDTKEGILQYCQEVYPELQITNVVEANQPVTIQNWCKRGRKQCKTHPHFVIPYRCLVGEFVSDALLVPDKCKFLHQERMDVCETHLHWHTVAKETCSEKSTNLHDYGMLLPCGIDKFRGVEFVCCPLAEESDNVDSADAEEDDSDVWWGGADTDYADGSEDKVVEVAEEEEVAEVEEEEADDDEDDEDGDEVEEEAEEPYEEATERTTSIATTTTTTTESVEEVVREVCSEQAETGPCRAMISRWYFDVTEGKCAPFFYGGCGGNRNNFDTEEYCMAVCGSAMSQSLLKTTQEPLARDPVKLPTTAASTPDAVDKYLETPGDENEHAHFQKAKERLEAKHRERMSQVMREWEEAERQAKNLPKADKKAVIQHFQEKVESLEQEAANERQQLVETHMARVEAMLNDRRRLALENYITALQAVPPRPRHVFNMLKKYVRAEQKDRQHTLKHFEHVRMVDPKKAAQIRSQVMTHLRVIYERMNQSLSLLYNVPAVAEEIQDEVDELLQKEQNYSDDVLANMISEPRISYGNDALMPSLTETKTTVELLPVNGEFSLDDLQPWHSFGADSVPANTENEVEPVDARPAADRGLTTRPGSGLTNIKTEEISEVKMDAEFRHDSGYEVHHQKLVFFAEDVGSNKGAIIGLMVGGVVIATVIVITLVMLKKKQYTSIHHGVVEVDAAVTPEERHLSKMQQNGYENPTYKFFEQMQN
Cholinesterase (Equus caballus), sequence (P81908 whole entry): as the sequence (P81908 whole entry) above

Structure (SMILES)	inhibition [3] [%]	Activity [5] [equiv]	pIC50 (Cholinesterase [6])	Ratio IC50 [7]	pIC50 (Cholinesterase [8])	pIC50 (Acetylcholinesterase [9])	pIC50 (Acetylcholinesterase [10])	Papp at 16 h, 50 ug/mL [11] [×10⁻⁶ cm/s]	other results
CCN(CC)CCCC(C)Nc1ccnc2cc(Cl)ccc12 (stereo not drawn)									inhibition [1]: 48.8%
CN(Cc1ccccc1)Cc1ccc(NC(=O)/C=C/c2ccc([N+](=O)[O-])cc2)cc1	52.8	0.8							inhibition [2]: 24%; inhibition [4]: 35%
CCN(Cc1ccccc1)Cc1ccc(NC(=O)Cc2ccc(O)cc2)cc1	42.1	1.35	5.69	1.16	5.35	5.42	5.19		
COc1ccc(CC(=O)Nc2ccc(CN(C)Cc3ccccc3)cc2)cc1OC	38.5	0.5	5.98	1.4	5.83	5.97	5.73		
Clc1cccc(Cl)c1N=C1NCCN1 [CLONIDINE]								3.1	
CCN(Cc1ccccc1)Cc1ccc(NC(=O)Cc2ccc(OC)c(O)c2)cc1	43.5	1.48	5.84	1.76	5.48	5.72	5.56		
CC(=O)[C@H]1CC[C@H]2[C@@H]3CCC4=CC(=O)CC[C@]4(C)[C@H]3CC[C@]12C [PROGESTERONE]								8.62	
CCN(Cc1ccccc1)Cc1ccc(NC(=O)CCc2ccccc2)cc1	36.1	0.32			4.86				inhibition [4]: 34%
CCN(Cc1ccccc1)Cc1ccc(NC(=O)Cc2ccccc2)cc1	38.1	0.26		1.5	4.86	5.18			
CN(Cc1ccccc1)Cc1ccc(NC(=O)/C=C/c2ccc(O)c(O)c2)cc1	56.2	4.24	5.10	2.1	5.01	5.33	5.27	5.34	Activity (mole fraction) [12]: 0.67; Activity (Mus musculus [13]): Active; Activity (PC-12 [14]): Non-Toxic; Activity (Mus musculus [15]): Active; Activity [16]: 274 nm; Activity [17]: Active; inhibition [1]: 87.4%; Activity [18]: inactive; Activity [19]: 245 nm; inhibition (Acetylcholinesterase [20]): Active; inhibition [21]: Active; Activity [22]: Active; Activity (PC-12 [23]): Active
COc1cc2cc(-c3ccc(CN(C)Cc4ccccc4)cc3)c(=O)oc2cc1OC				315	4.91	7.40			
CN(Cc1ccccc1)Cc1ccc(NC(=O)/C=C/c2ccc(O)cc2)cc1	56.6	2.13		1.95	5.02	5.31			
CN(Cc1ccccc1)Cc1ccc(NC(=O)Cc2ccc(O)c(O)c2)cc1	40.5	3.26	6.02	1.36	5.64	5.77	5.33	3.9	Activity (PC-12 [14]): Non-Toxic; Activity (PC-12 [23]): Active
NCCc1ccc(O)c(O)c1 [DOPAMINE]								0.45	
COc1ccc(/C=C/C(=O)Nc2ccc(CN(C)Cc3ccccc3)cc2)cc1OC	56.6	1.28	5.81	1.9	5.43	5.71	5.53	7.56	
COc1cc(/C=C/C(=O)O)ccc1O		2.56							

Structure (SMILES)	inhibition [3] [%]	Activity [5] [equiv]	pIC50 (Cholinesterase [6])	Ratio IC50 [7]	pIC50 (Cholinesterase [8])	pIC50 (Acetylcholinesterase [9])	pIC50 (Acetylcholinesterase [10])	Papp at 16 h, 50 ug/mL [11] [×10⁻⁶ cm/s]	other results
COc1ccc2[nH]cc(CCNC(C)=O)c2c1									Activity (PC-12 [24]): Active
CN(Cc1ccccc1)Cc1ccc(NC(=O)Cc2ccccc2)cc1	33.5	0.38	5.31	1.63	5.28	5.49	5.24		
CCN(Cc1ccccc1)Cc1ccc(NC(=O)Cc2ccc(O)c(O)c2)cc1	42.1	3.25	5.62	1.54	5.23	5.44	5.14	4.41	Activity (PC-12 [14]): Non-Toxic; Activity (PC-12 [23]): Active
COc1ccc(/C=C/C(=O)Nc2ccc(CN(C)Cc3ccccc3)cc2)cc1	57.8	1.34	5.19	2.2	5.09	5.43	5.34		
CCN(Cc1ccccc1)Cc1ccc(NC(=O)c2ccccc2)cc1	37.1	0.32			4.86				inhibition [4]: 33%
CN(Cc1ccccc1)Cc1ccc(NC(=O)/C=C/c2ccc(Cl)cc2)cc1	58.6	0.82							inhibition [2]: 32%; inhibition [4]: 41%
CN1C(C(=O)Nc2ccccn2)=C(O)c2ccccc2S1(=O)=O [PIROXICAM]								3.29	
CN(Cc1ccccc1)Cc1ccc(NC(=O)c2ccccc2)cc1	35.2	0.36			5.28				inhibition [4]: 38%
Cc1c(C)c2c(c(C)c1O)CCC(C)(C(=O)O)O2 (stereo not drawn)									Activity (PC-12 [24]): Active
CCN(Cc1ccccc1)Cc1ccc(NC(=O)Cc2ccc(OC)c(OC)c2)cc1	40.6	0.48	5.92	2.13	5.48	5.81	5.49		
CN(Cc1ccccc1)Cc1ccc(NC(=O)Cc2ccc(O)cc2)cc1	38.5	1.38	5.36	2.12	5.46	5.65	5.49		
COc1ccc(CC(=O)Nc2ccc(CN(C)Cc3ccccc3)cc2)cc1O	42.5	1.5	5.89	2.29	5.62	5.98	5.52	4.37	Activity (PC-12 [14]): Non-Toxic; Activity (PC-12 [23]): Active
CN(Cc1ccccc1)Cc1ccc(NC(=O)/C=C/c2ccccc2)cc1	56.8	1.1		1.55	5.09	5.28			
CN(Cc1ccccc1)Cc1ccc(NC(=O)CCc2ccccc2)cc1	35.2	0.3			5.28				inhibition [4]: 45%
COc1cc(/C=C/C(=O)Nc2ccc(CN(C)Cc3ccccc3)cc2)ccc1O	56.8	2.86	5.29	2.2	5.06	5.40	5.08	6.21	Activity (PC-12 [14]): Non-Toxic; Activity (PC-12 [23]): Active
